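Grown in 96-well plates, cells were treated for 48 hours with each compound at five concentrations. Insufficient inhibition: endpoint recorded as highest concentration tested. TGI: total growth inhibition.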 A value given as a limit tells only on which side of the number the result lay.

The test system of the first assay is SK-MEL-28 melanoma. Nature of the assay: DTP human tumour cell line panel, 48 h.
The TGI is the concentration at which net growth stops. Read a low TGI as more potent growth arrest. `CCOc1ccc2c(c1)[n+]([O-])c(-c1ccc(Cl)cc1)c(N)[n+]2[O-]` returned a TGI greater than 100 µM.

Turning to `C=CCN1C(=O)/C(=C/c2ccco2)N=C1SC/C=C/C`, the TGI was greater than 100 µM.

As for `CN(C)CC/C(=N\Nc1ccc([N+](=O)[O-])cc1)c1ccccc1`, the total growth inhibition concentration (TGI) came out at 25.3 µM.

`Clc1ccc(C2SCc3nc4ccccc4n32)c(Cl)c1` (centres undefined) registered a TGI of 31.6 µM.

The next assay concerns SK-MEL-5 melanoma. Nature of the assay: DTP human tumour cell line panel, 48 h.
With `CCOc1ccc2c(c1)[n+]([O-])c(-c1ccc(Cl)cc1)c(N)[n+]2[O-]`, the TGI was greater than 100 µM.

Compound `C=CCN1C(=O)/C(=C/c2ccco2)N=C1SC/C=C/C` returned a TGI of 44.3 µM.

The compound `CN(C)CC/C(=N\Nc1ccc([N+](=O)[O-])cc1)c1ccccc1` displayed a total growth inhibition concentration (TGI) of 28.5 µM.

Compound `Clc1ccc(C2SCc3nc4ccccc4n32)c(Cl)c1` (centres undefined) gave a total growth inhibition concentration (TGI) of 20.4 µM.

Another assay has as its system SK-OV-3 ovarian. Nature of the assay: DTP human tumour cell line panel, 48 h.
Take `CCOc1ccc2c(c1)[n+]([O-])c(-c1ccc(Cl)cc1)c(N)[n+]2[O-]`: the TGI was greater than 100 µM.

The compound `C=CCN1C(=O)/C(=C/c2ccco2)N=C1SC/C=C/C` had a TGI greater than 100 µM.

For the compound `CN(C)CC/C(=N\Nc1ccc([N+](=O)[O-])cc1)c1ccccc1`, the TGI stood at 29.8 µM.

On to `Clc1ccc(C2SCc3nc4ccccc4n32)c(Cl)c1` (centres undefined), for which the TGI turned out to be 42.1 µM.

Another assay concerns SN12C renal. Nature of the assay: DTP human tumour cell line panel, 48 h.
Consider `CCOc1ccc2c(c1)[n+]([O-])c(-c1ccc(Cl)cc1)c(N)[n+]2[O-]`, for which the total growth inhibition concentration (TGI) was greater than 100 µM.

`C=CCN1C(=O)/C(=C/c2ccco2)N=C1SC/C=C/C`: the TGI was greater than 100 µM.

Compound `CN(C)CC/C(=N\Nc1ccc([N+](=O)[O-])cc1)c1ccccc1` showed a TGI of 23.8 µM.

On to `Clc1ccc(C2SCc3nc4ccccc4n32)c(Cl)c1` (centres undefined), for which the TGI amounted to 28.1 µM.

A further assay has as its system SNB-19 CNS. Nature of the assay: DTP human tumour cell line panel, 48 h.
Consider `CCOc1ccc2c(c1)[n+]([O-])c(-c1ccc(Cl)cc1)c(N)[n+]2[O-]`, for which the TGI was greater than 100 µM.

For the compound `C=CCN1C(=O)/C(=C/c2ccco2)N=C1SC/C=C/C`, the concentration for total growth inhibition (TGI) is greater than 100 µM.

`CN(C)CC/C(=N\Nc1ccc([N+](=O)[O-])cc1)c1ccccc1` had a TGI of 28.9 µM.

For the compound `Clc1ccc(C2SCc3nc4ccccc4n32)c(Cl)c1` (centres undefined), the TGI was 33 µM.

Another assay relates to SNB-75 CNS. Nature of the assay: DTP human tumour cell line panel, 48 h.
`CCOc1ccc2c(c1)[n+]([O-])c(-c1ccc(Cl)cc1)c(N)[n+]2[O-]` displayed a TGI greater than 100 µM.

The compound `C=CCN1C(=O)/C(=C/c2ccco2)N=C1SC/C=C/C` gave a TGI greater than 100 µM.

Consider `CN(C)CC/C(=N\Nc1ccc([N+](=O)[O-])cc1)c1ccccc1`, for which the TGI amounted to 17.6 µM.

In turn, `Clc1ccc(C2SCc3nc4ccccc4n32)c(Cl)c1` (centres undefined) gave a concentration for total growth inhibition (TGI) of 34.8 µM.

For the next assay, the system named is SNB-78 CNS. The experiment in a line: DTP human tumour cell line panel, 48 h.
With `CCOc1ccc2c(c1)[n+]([O-])c(-c1ccc(Cl)cc1)c(N)[n+]2[O-]`, the TGI was greater than 100 µM.

Consider `CN(C)CC/C(=N\Nc1ccc([N+](=O)[O-])cc1)c1ccccc1`, for which the TGI was 20 µM.

The next assay deals with SR leukemia. The experiment in a line: DTP human tumour cell line panel, 48 h.
`CCOc1ccc2c(c1)[n+]([O-])c(-c1ccc(Cl)cc1)c(N)[n+]2[O-]` displayed a TGI greater than 100 µM.

For `C=CCN1C(=O)/C(=C/c2ccco2)N=C1SC/C=C/C`, the TGI turned out to be 52.9 µM.

`CN(C)CC/C(=N\Nc1ccc([N+](=O)[O-])cc1)c1ccccc1` registered a TGI of 17.2 µM.

`Clc1ccc(C2SCc3nc4ccccc4n32)c(Cl)c1` (centres undefined) came in with a TGI of 39.1 µM.

The test system of the next assay is SW-620 colon. Nature of the assay: DTP human tumour cell line panel, 48 h.
As for `CCOc1ccc2c(c1)[n+]([O-])c(-c1ccc(Cl)cc1)c(N)[n+]2[O-]`, the TGI is greater than 100 µM.

In turn, `C=CCN1C(=O)/C(=C/c2ccco2)N=C1SC/C=C/C` returned a TGI greater than 100 µM.

As for `CN(C)CC/C(=N\Nc1ccc([N+](=O)[O-])cc1)c1ccccc1`, the TGI is 26.5 µM.

Take `Clc1ccc(C2SCc3nc4ccccc4n32)c(Cl)c1` (centres undefined): the TGI was determined as 22 µM.

The next assay has as its system T-47D breast. Nature of the assay: DTP human tumour cell line panel, 48 h.
`C=CCN1C(=O)/C(=C/c2ccco2)N=C1SC/C=C/C` gave a TGI greater than 100 µM.

A further assay relates to TK-10 renal. Nature of the assay: DTP human tumour cell line panel, 48 h.
On to `C=CCN1C(=O)/C(=C/c2ccco2)N=C1SC/C=C/C`, for which the TGI was greater than 100 µM.

In turn, `CN(C)CC/C(=N\Nc1ccc([N+](=O)[O-])cc1)c1ccccc1` showed a TGI of 15.3 µM.

`Clc1ccc(C2SCc3nc4ccccc4n32)c(Cl)c1` (centres undefined) gave a TGI of 28.4 µM.

The next assay deals with U251 CNS. Nature of the assay: DTP human tumour cell line panel, 48 h.
`CCOc1ccc2c(c1)[n+]([O-])c(-c1ccc(Cl)cc1)c(N)[n+]2[O-]`: the TGI was greater than 100 µM.

With `C=CCN1C(=O)/C(=C/c2ccco2)N=C1SC/C=C/C`, the TGI was greater than 100 µM.

The compound `CN(C)CC/C(=N\Nc1ccc([N+](=O)[O-])cc1)c1ccccc1` had a TGI of 25.5 µM.

In the case of `Clc1ccc(C2SCc3nc4ccccc4n32)c(Cl)c1` (centres undefined), the TGI came to 32 µM.

In a further assay the test system is UACC-257 melanoma. The experiment in a line: DTP human tumour cell line panel, 48 h.
The compound `CCOc1ccc2c(c1)[n+]([O-])c(-c1ccc(Cl)cc1)c(N)[n+]2[O-]` registered a TGI greater than 100 µM.

The compound `C=CCN1C(=O)/C(=C/c2ccco2)N=C1SC/C=C/C` displayed a TGI greater than 100 µM.

`CN(C)CC/C(=N\Nc1ccc([N+](=O)[O-])cc1)c1ccccc1` gave a TGI of 30.5 µM.

The compound `Clc1ccc(C2SCc3nc4ccccc4n32)c(Cl)c1` (centres undefined) showed a TGI of 22.2 µM.

Another assay has as its system UACC-62 melanoma. Nature of the assay: DTP human tumour cell line panel, 48 h.
In turn, `C=CCN1C(=O)/C(=C/c2ccco2)N=C1SC/C=C/C` came in with a total growth inhibition concentration (TGI) of 73.7 µM.

Consider `CN(C)CC/C(=N\Nc1ccc([N+](=O)[O-])cc1)c1ccccc1`, for which the TGI is 25.9 µM.

As to `Clc1ccc(C2SCc3nc4ccccc4n32)c(Cl)c1` (centres undefined), the TGI came out at 32 µM.

A further assay has as its system UO-31 renal. The experiment in a line: DTP human tumour cell line panel, 48 h.
In turn, `CCOc1ccc2c(c1)[n+]([O-])c(-c1ccc(Cl)cc1)c(N)[n+]2[O-]` showed a TGI greater than 100 µM.

`C=CCN1C(=O)/C(=C/c2ccco2)N=C1SC/C=C/C` had a TGI greater than 100 µM.

As for `CN(C)CC/C(=N\Nc1ccc([N+](=O)[O-])cc1)c1ccccc1`, the total growth inhibition concentration (TGI) amounted to 6.02 µM.

Turning to `Clc1ccc(C2SCc3nc4ccccc4n32)c(Cl)c1` (centres undefined), the TGI came out at 24.9 µM.

For another assay, the system named is XF 498 CNS. Nature of the assay: DTP human tumour cell line panel, 48 h.
For the compound `Clc1ccc(C2SCc3nc4ccccc4n32)c(Cl)c1` (centres undefined), the TGI was 33.6 µM.

The values are drawn from PubChem BioAssay (NCI).
